Results published in patent publication US7087253B2 (AKH Arzneimittelkontor GmbH, priority 2002, dated 2006).

Tested on: patients with acute bronchitis
Assay: double blind, randomized, placebo-controlled clinical study, 14-day treatment of acute bronchitis
Type: in vivo
Protocol: A parallel group of patients was treated for 14 days correspondingly with placebo or cefuroxime.

## CO/N=C(\C(=O)N[C@@H]1C(=O)N2C(C(=O)O)=C(COC(N)=O)CS[C@H]12)c1ccco1 [cefuroxime]
After 7±2 treatment days
  patients still with a pathological ausculatory finding: 26.3%
  patients who experienced a worsening of the symptoms (terminations because of a worsening of the acute bronchitis): 7.6%
After 14±2 treatment days
  patients with worsening of the acute bronchitis: 16.4%
  patients with worsening, times as many as in the Eucalyptus oil/orange oil group: 10 times
After 14±2 days
  patients still with a pathological ausculatory finding (pathological respiratory sounds): 7.6%
human, in vivo
  general state of health, Eucalyptus oil/orange oil group versus cefuroxime group: no differences worth mentioning
